Experiments:
RAW264.7 cells [1] = test: Mitochondrial membrane potential (JC-1) in RAW264.7 cells; assay type: cell-based, murine; conditions: for effect of inhibitor on oxLDL-elicited mitochondrial membrane depolarization: Figures S4D, 5G; for effect of inhibitor on MPE-298's reversal of oxLDL-elicited mitochondrial membrane depolarization: SSO 100 μM, PP1 3 μg/mL, 2-BP 100 μM, BI-0115 5 μM, Figure 5D,G
Method: For the measurement of the mitochondrial membrane potential (ΔΨM), treated cells were incubated in HBSS with 5,5′,6,6′-tetrachloro-1,1′,3,3′-tetraethylbenzimidazolylcarbocyanine iodide (JC-1, 5 μM), a membrane-permeable cationic dye (Invitrogen-Life Technologies, Carlsbad, CA, USA). After 20 min, cells were extensively washed with HBSS. Fluorescence from aggregated JC-1 was measured with an excitation wavelength of 550 nm and emission wavelength of 600 nm, and fluorescence from JC-1 monomer was detected with an excitation wavelength of 485 nm and emission wavelength of 535 nm. The ΔΨM was determined from the ratio of intensities at 600 nm and 535 nm.

CD36 = target: T1, CD36 (Mus musculus, UniProt Q08857); test: BRET-based CD36 internalization assay; assay type: cell-based; conditions: 30 min pretreatment: PP1 3 μg/mL, cytochalasin D 2 μg/mL, piceatannol 40 μM, 2-bromopalmitate 100 μM, SSO 100 μM, BI-0115 5 μM; then ligand 15 min
T1 construct: CD36 ORF was amplified from pCMV3-mCD36-GFPSpark; expressed in transfected cells; host or cells: J774A.1 murine macrophages, transiently co-transfected with mCD36-RlucII and rGFP-CAAX
From the text: For the construction of mouse CD36-RlucII, CD36 ORF was amplified from pCMV3-mCD36-GFPSpark using the 5′-primer NheI-CD36-Forward: […] and 3′-primer HindIII-CD36-Reverse: […] primers to introduce NheI and HindIII digestion sites sequences. The final product was subcloned in-frame into NheI/HindIII of pcDNA3.1/hygromycin (+) plasmid containing the RlucII [19]. The rGFP-CAAX plasmid, constructed as previously described, was kindly provided by Dr. Stephane Laporte.
For the BRET assay, J774A.1 cells were seeded in a 96-well plate (white, flat bottom) at a density of 35,000 cells/well in DMEM supplemented with 10% FBS and 1% penicillin/streptomycin. Cells were grown at 37 °C in 5% CO2 and 90% humidity. The next day, the culture medium was changed to DMEM 10% FBS and 0.2% penicillin/streptomycin, supplemented with 5-azacytidine (1 μM) for 2 h. Cells were transiently transfected using a mixed solution containing mCD36-RlucII plasmid (25.6 ng), rGFP-CAAX plasmid (31.7 ng), and pcDNA3.1(+) for a total of 80 ng cDNA/well. TransIT-X2® reagent was used at a cDNA-to-reagent ratio of 1 μg to 4 μL. Twenty-four hours later, cells were starved for 2 h in Tyrode’s buffer (140 mM NaCl, 2.7 mM KCl, 1 mM CaCl2, 12 mM NaHCO3, 5.6 mM D-glucose, 0.5 mM MgCl2, 0.37 mM NaH2PO4, and 25 mM HEPES, pH 7.4) supplemented with 0.01% BSA. Luminescence was induced with Prolume Purple (1.5 μM final) for 2 min in Tyrode’s buffer. Luminescence signal was measured using a Tecan Spark Multimode microplate reader (Tecan Trading AG, Männedorf, Switzerlnd) in the BRET2 mode with filter sets of 420/70 nm and 515/30 nm for detecting RlucII and rGFP signals, respectively. The BRET ratio was determined as follows: [(intensity emitted by the rGFP/intensity emitted by the Rluc2) − (intensity emitted by the rGFP/intensity emitted by the Rluc2 for the CD36-RLuc2 control cells)].
For kinetic study, transiently co-transfected J774A.1 cells were incubated at different times with MPE-298 (100 nM) or oxLDL (25 μg/mL). In experimental protocols involving pharmacological inhibitors, cells transiently co-transfected were pretreated with PP1 (3 μg/mL), cytochalasin D (2 μg/mL), piceatannol (40 μM), 2-bromopalmitate (100 μM), SSO (100 μM), and BI-0115 (5 μM) for 30 min. CD36 internalization was then induced with MPE-298 and oxLDL for 15 min. For the BRET saturation studies, the cells were transiently transfected with a fixed concentration of mCD36-RlucII plasmid (25.6 ng) and increasing concentrations of rGFP-CAAX plasmid ranging from 0 to 77 ng for 24 h.

RAW264.7 cells [2] = test: mtROS production (MitoSOX Red) in RAW264.7 cells; assay type: cell-based, murine; conditions: for effect of inhibitor on oxLDL-elicited mtROS production: 30 min pre-exposure, oxLDL 25 μg/mL 4 h, Figures S4C, 5F; for effect of inhibitor on MPE-298's inhibition of oxLDL-elicited mtROS production: SSO 100 μM, PP1 3 μg/mL, cytochalasin D 2 μg/mL, 2-BP 100 μM, BI-0115 5 μM, Figure 5A,B,F
Method: RAW264.7 cells (17,000 cells/well) or M1 BMDM (60,000 cells/well) in complete medium (RPMI 1640 supplemented with 10% FBS and 1% penicillin/streptomycin), were seeded in 96-well tissue culture plates and incubated overnight at 37 °C in 5% CO2. On the day of experimentation, cells were starved in RPMI medium supplemented with 1% penicillin/streptomycin and 0.2% BSA for 1 h. Cells were first pretreated with MPE-298 for 1 h and stimulated or not with oxLDL for 4 h. In other experiments, cells were preincubated with inhibitors as indicated in the figure legends prior to MPE-298 incubation and oxLDL stimulation. After the stimulation period, cells were washed with Hanks’ balanced salt solution (HBSS, Wisent Inc.) and incubated with a mixture of MitoSOX Red (5 μM), a mitochondrial superoxide indicator, and Hoechst-33342 (4 μM), a nuclear staining dye, for 20 min at 37 °C. The fluorescence intensities were analyzed using a Synergy2 (BioTek) microplate reader with the following filter sets: excitation/emission at 510/580 nm for MitoSox and 350/461 nm for Hoechst-33342. Fluorescence intensity of MitoSox was normalized by fluorescence intensity of Hoescht-33342.

RAW264.7 cells [3] = test: ATTO-465-MPE-298 internalization in RAW264.7 cells; assay type: cell-based, murine; conditions: 30 min pretreatment with PP1 3 μg/mL, PP2 3 μg/mL or cytochalasin D 2 μg/mL, ATTO-465-MPE-298 500 nM 15 min, acid wash, n = 3 in triplicate
Method: RAW 264.7 cells (ATCC) were seeded at 125,000 cells per well in a 96-well plate and allowed to adhere overnight in Roswell Park Memorial Institute Medium (RPMI, Wisent Inc, Saint-Jean-Baptiste, QC, Canada) supplemented with 10% FBS and 1% penicillin/streptomycin at 37 °C in 5% CO2. The cells were weaned off FBS for 2 h in RPMI-25mM Hepes, supplemented with 1% penicillin/streptomycin and 0.2% BSA. The kinetics of ligand internalization (incubation at 37 °C) and plasma membrane bound (incubation at 4 °C) were initiated by adding ATTO-465-MPE-298 at different time points. After incubation, the cells were washed 3 times with cold PBS to determine the total fluorescence and the cell surface bounds or with sodium acetate pH 4 buffer at 4 °C to assess the internalized fraction, followed by lysis in 0.5N NaOH/0.05% sodium dodecyl sulfate (SDS). For the characterization of the endocytosis pathways elicited by MPE-298, cells were pretreated with specific inhibitors 30 min before adding the fluorescent peptide as the tracer. Briefly, after being weaned off FBS, the cells were preincubated at 37 °C in 5% CO2 with cytochalasin D (2 μg/mL), as an inhibitor of actin polymerization, and with PP1 (3 μg/mL) and PP2 (3 μg/mL), as inhibitors of Src kinases. After 30 min of incubation, ATTO-465-MPE-298 was added for an additional 15 min. The fluorescence was analyzed with excitation/emission wavelengths at 510/580 nm using a BioTek Synergy2 (Agilent, Santa Clara, CA, USA)microplate reader.

p66Shc (Ser36) = test: Western blot of p66Shc phosphorylation in RAW264.7 cells; assay type: cell-based, murine; conditions: preincubation before oxLDL, BI-0115 5 μM, SSO 100 μM, Figures 7A, S5
Method: (§1) Murine RAW264.7 cells or M1 BMDMs were seeded in 6-well plates. The next day, cells were starved for 4 h and treated with MPE-298 (100 nM) or oxLDL (25 μg/mL) for the indicated times. Cells were washed with cold PBS, then lysed for 30 min in ice-cold radioimmunoprecipitation assay buffer (RIPA) (150 mM NaCl, 50 mM Tris-HCl, 1% Triton X-100, 0.2% SDS, 50 mM NaF, and 2 mM EDTA, pH 7.4) containing protease and phosphatase inhibitors (Pierce Biotechnology, Waltham, MA, USA). Cell lysates were centrifuged at 15,000× g for 20 min at 4 °C.
(§2) The protein concentration of supernatants was determined by a bicinchoninic acid (BCA) assay (Pierce Biotechnology, Waltham, MA, USA). Equal amounts of protein extracts were separated on 4–12% SDS–polyacrylamide gels and transferred to polyvinylidene difluoride (PVDF) membranes (Bio-Rad Laboratories, Hercules, CA, USA) for immunoblotting. Membranes were blotted with primary antibodies p47phox and Rac1/2/3 for phosphorylated Syk (Tyr348), as well as SRC family kinases (Tyr416), Lyn (Tyr397), JNK (Thr183/Tyr185), and p66Shc (Ser36). […] Immunoblotted bands were detected by enhanced chemiluminescence with West Femto chemiluminescent substrate (Thermo Scientific, Waltham, MA, USA) using a ChemiDoc MP Imaging System (Bio-Rad Laboratories, Hercules, CA, USA). […]

CCL2 = CCL2 secretion, ELISA; assay type: cell-based, mouse; conditions: RAW264.7, SSO 100 μM, Figure 4G
Method: RAW264.7 cells were seeded at a density of 150,000/well in 48-well plates. The next day, the cells were weaned for 4 h in DMEM supplemented with 0.2% BSA, exposed to MPE-298 or oxLDL or the combination of MPE-298 and oxLDL, and incubated at 37 °C in 5% CO2 for 16 h. After the incubation period, media were collected and assessed for CCL2 chemokine using a mouse ELISA detection kit (Invitrogen-Life Technologies, Carlsbad, CA, USA) following the manufacturer’s instructions. For experiments using inhibitors, the cells were pre-exposed to SSO for 30 min prior to stimulation with MPE-298 or oxLDL.

JNK (Thr183/Tyr185) = test: Western blot of JNK phosphorylation in RAW264.7 cells; assay type: cell-based, murine; conditions: preincubation before oxLDL, BI-0115 5 μM, SSO 100 μM, Figures 7A, S5
Method: as §1, §2

| Compound | effect of inhibitor on oxLDL-elicited mitochondrial membrane depolarization (RAW264.7 cells [1]) | effect of inhibitor on MPE-298's reversal of oxLDL-elicited mitochondrial membrane depolarization (RAW264.7 cells [1]) | effect of inhibitor pretreatment on MPE-298- and oxLDL-induced loss of BRET signal (CD36) | effect of inhibitor on oxLDL-elicited mtROS production (RAW264.7 cells [2]) | effect of inhibitor on MPE-298's inhibition of oxLDL-elicited mtROS production (RAW264.7 cells [2]) | decrease of uptake of fluorescently labeled MPE-298 (RAW264.7 cells [3]) [%] | effect on oxLDL-induced p66Shc phosphorylation (p66Shc (Ser36)) | effect of preincubation on oxLDL-induced CCL2 secretion (CCL2; 30 min preincubation) | effect of pre-exposure on MPE-298's effects on oxLDL-triggered CCL2 release (CCL2) | effect on oxLDL-induced JNK phosphorylation (JNK (Thr183/Tyr185)) |
| --- | --- | --- | --- | --- | --- | --- | --- | --- | --- | --- |
| CCCCCCCCCCCCCCC(Br)C(=O)O (centres unmarked) [2-BP, 2-bromohexadecanoic acid] | prevented | did not block | abolish | neither SSO nor PP1 and 2-BP altered | blocked |  |  |  |  |  |
| Cc1ccc(-c2nn(C(C)(C)C)c3ncnc(N)c23)cc1 [PP1] | prevented | did not block | completely abolished | neither SSO nor PP1 and 2-BP altered | blocked the protective effect | 45 |  |  |  |  |
| CC(C)(C)n1nc(-c2ccc(Cl)cc2)c2c(N)ncnc21 [PP2] |  |  |  |  |  | 41 |  |  |  |  |
| CCCCCCCC/C=C\CCCCCCCC(=O)ON1C(=O)CC(S(=O)(=O)O)C1=O (centres unmarked) [SSO, sulfosuccinimidyl oleate] | prevented | did not block | completely abolished | neither SSO nor PP1 and 2-BP altered | blocked the protective effect |  | did not prevent | unaltered | completely abolished | did not prevent |
| C=C1[C@@H](C)[C@H]2[C@H](Cc3ccccc3)NC(=O)[C@]23[C@H](OC(C)=O)/C=C/[C@@](C)(O)C(=O)[C@@H](C)C/C=C/[C@H]3[C@@H]1O [cytochalasin D] | prevented |  | completely abolished |  | blocked the protective effect | 53 |  |  |  |  |
| Oc1cc(O)cc(/C=C/c2ccc(O)c(O)c2)c1 [piceatannol] |  |  | completely abolished |  |  |  |  |  |  |  |

Reference: article PMC11898605, “Selective Azapeptide CD36 Ligand MPE-298 Regulates oxLDL-LOX-1-Mediated Inflammation and Mitochondrial Oxidative Stress in Macrophages” (Cells, 2025)
